Where two headings read alike, the source gives them in different places.
How the values were obtained:
Assay type in all cases: biochemical
[1] = molecular target: T1, Pak4 (Homo sapiens, UniProt O96013); test: In Vitro Pak4 Enzyme Assay (SPA); conditions: read-out: IC50 value in the Pak 4 enzyme assay
T1 construct: The kinase domain of Pak4 (amino acids 291 to 591) is expressed in E. coli as a GST fusion; GST; made in house; host or cells: E. coli
Procedure: (§1) The assay used Scintillation Proximity Assay (SPA) technology (Antonsson et al., Analytical Biochemistry, 1999, 267: 294-299) to determine the ability of test compounds to inhibit phosphorylation by recombinant Pak4. The kinase domain of Pak4 (amino acids 291 to 591) is expressed in E. coli as a GST fusion and purified using the GST tag using standard purification techniques.
(§2) Test compounds were prepared as 10 mM stock solutions in DMSO and diluted into water as required to give a range of final assay concentrations. Aliquots (5 μl) of each compound dilution were placed into a well of a Matrix 384-well flat bottom white polystyrene plate (Catalogue No. 4316). […]
(§3) Each reaction was stopped and the biotinylated peptide captured by the addition of 30 μl of a mixture of Streptavidin coated PVT SPA bead slurry (Amersham Biosciences, Catalogue No. RPQ0205; 250 μg/well) in 50 mM Tris-HCl pH7.5 buffer containing 0.05% sodium azide followed by the addition of 30 μl of 2.83M Caesium chloride (final assay concentration of 1M). Plates are then left for 2 hours on the bench before being counted on a TopCount. […]
Pak4 enzyme inhibition for a given test compound was expressed as an IC50 value. […]

[2] = molecular target: T2, Pak1 (Homo sapiens, UniProt Q13153); test: In Vitro Pak1 Enzyme Assay (SPA); conditions: read-out: IC50 value in the Pak 1 enzyme assay
T2 construct: The full-length Pak1 protein is expressed in E. coli as a GST fusion; GST; made in house; host or cells: E. coli
Procedure: as §1, with “Pak1.” for “Pak4.”, “full-length Pak1 protein” for “kinase domain of Pak4 (amino acids 291 to 591)”
as §2
as §3, with “of 30 […] of a” for “of 30 μl of a”, “Catalogue No. RPQO205; 250 μg/well)” for “Catalogue No. RPQ0205; 250 μg/well)”
Pak1 enzyme inhibition for a given test compound was expressed as an IC50 value.

[3] = molecular target: T3, PDK1 (Homo sapiens, UniProt O15530); test: PDK1 Enzyme Assay (Alphascreen)
T3 construct: 6His; made in house; host or cells: insect cells
T3 sequence (O15530 1-556): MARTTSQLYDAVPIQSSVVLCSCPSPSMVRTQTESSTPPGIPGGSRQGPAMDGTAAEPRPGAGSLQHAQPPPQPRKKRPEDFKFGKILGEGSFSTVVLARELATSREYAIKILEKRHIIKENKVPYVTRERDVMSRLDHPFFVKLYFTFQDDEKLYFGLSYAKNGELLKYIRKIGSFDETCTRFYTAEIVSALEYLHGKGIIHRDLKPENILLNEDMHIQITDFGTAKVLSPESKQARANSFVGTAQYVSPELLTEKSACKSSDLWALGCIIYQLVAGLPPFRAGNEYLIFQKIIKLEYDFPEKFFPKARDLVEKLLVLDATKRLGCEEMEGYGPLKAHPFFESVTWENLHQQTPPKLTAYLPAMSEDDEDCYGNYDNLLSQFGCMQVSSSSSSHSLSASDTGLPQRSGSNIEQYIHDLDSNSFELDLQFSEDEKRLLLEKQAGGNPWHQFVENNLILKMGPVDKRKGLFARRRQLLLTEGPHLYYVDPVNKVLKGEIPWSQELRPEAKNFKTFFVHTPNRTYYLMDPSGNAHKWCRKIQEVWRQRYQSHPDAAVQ
Procedure: The assay utilised Alphascreen technology (Ullman, E F, et al. Proc. Natl. Acad. Sci. USA, Vol. 91, pp. 5426-5430, 1994) to measure the ability of compounds to inhibit PDK1 enzyme activity. 6H is tagged PDK1 enzyme was expressed in insect cells and purified using NiNTA beads and conventional protein purification methodology.
Test compounds were prepared as 10 mM stock solutions in DMSO and diluted into water as required to give a range of final assay concentrations. 2 μl aliquots of compounds were dispensed into Greiner Bio-One low volume 384 well plates (Catalogue no. 784075). For the activity assay, to each well was added 5 μl of a mixture of 48 nM native peptide (Biotin-Ahx-[…]NH2, Bachem UK Ltd) and 12 μM adenosine triphosphate (ATP) in reaction buffer comprising Tris-HCl pH7.4 (60 mM), magnesium acetate (12 mM), EGTA (120 μM), DTT (1.2 mM) and bovine serum albumin (0.12 mg/ml). […]
Each reaction was stopped by addition of 5 μl of a solution containing Tris-HCl pH7.4 (50 mM), bovine serum albumin (1 mg/ml), EDTA (90 mM), anti-phospho Akt T308 antibody, R&D Systems, Catalogue no. […] Plates were then sealed and incubated overnight in low light conditions before being read on an Envision plate reader (Perkin Elmer). […]

[4] = molecular target: T4, CHK1 kinase (Homo sapiens, UniProt O14757); test: Checkpoint Kinase 1 Assay (SPA)
T4 construct: The kinase domain is expressed in baculovirus and purified by the GST tag; GST; made in house; host or cells: baculovirus system (insect cells implied)
T4 sequence (O14757 9-265 limits assumed): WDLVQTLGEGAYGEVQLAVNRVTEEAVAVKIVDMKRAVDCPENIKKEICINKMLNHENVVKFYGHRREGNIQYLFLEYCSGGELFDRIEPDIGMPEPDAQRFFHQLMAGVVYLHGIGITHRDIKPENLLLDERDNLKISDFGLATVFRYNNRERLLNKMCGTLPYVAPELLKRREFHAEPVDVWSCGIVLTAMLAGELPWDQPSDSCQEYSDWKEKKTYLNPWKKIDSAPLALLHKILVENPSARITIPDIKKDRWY
Procedure: Checkpoint Kinase 1 Assay: This in vitro assay measures the inhibition of CHK1 kinase by compounds. The kinase domain is expressed in baculovirus and purified by the GST tag. Purified protein and biotinylated peptide substrate (Cdc25C) is then used in a 384 well automated Scintillation Proximity Assay (SPA). Specifically, peptide, enzyme and reaction buffer are mixed and aliquoted into a 384 well plate containing dilution series of compounds and controls. Cold and hot ATP are then added to initiate the reaction. After 2 hours, a SPA bead slurry, […] and EDTA are added to stop the reaction and capture the biotinylated peptide. Plates are then counted on a Topcount. Data is analyzed and IC50s determined for individual compounds.

T2 sequence (Q13153 whole entry, the tested form may be a part): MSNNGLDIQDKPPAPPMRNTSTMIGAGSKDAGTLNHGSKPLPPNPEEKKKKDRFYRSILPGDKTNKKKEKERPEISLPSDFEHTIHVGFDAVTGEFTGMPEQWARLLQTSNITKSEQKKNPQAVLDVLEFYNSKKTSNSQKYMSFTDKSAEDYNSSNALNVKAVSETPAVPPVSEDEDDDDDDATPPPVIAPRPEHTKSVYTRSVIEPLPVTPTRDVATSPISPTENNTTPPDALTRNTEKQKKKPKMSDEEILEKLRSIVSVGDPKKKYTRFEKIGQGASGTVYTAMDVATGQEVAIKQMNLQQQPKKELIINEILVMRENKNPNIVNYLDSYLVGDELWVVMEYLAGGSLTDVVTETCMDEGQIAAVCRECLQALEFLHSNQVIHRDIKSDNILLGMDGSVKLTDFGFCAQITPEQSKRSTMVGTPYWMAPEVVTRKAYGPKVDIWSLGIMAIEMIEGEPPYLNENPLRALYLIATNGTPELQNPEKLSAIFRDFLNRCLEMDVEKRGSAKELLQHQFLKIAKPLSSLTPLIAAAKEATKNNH
T1 sequence (O96013 291-591): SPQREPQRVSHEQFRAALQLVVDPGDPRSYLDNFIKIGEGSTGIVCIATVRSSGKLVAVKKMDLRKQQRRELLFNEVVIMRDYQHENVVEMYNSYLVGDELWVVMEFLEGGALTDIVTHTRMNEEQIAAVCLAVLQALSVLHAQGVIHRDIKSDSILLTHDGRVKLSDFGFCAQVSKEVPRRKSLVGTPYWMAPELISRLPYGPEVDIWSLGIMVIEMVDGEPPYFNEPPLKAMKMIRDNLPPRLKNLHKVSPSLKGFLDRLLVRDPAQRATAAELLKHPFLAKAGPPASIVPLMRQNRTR

Row | IC50 [1] [nM] | IC50 [2] [nM] | IC50 [3] [nM] | IC50 ([4]; read-out: IC50 value in the Checkpoint Kinase 1 assay) [nM] | SMILES | IC50 [4] [nM]
1 | 140 | 730 | 350 |  | NC(=O)c1cnc(N[C@H]2CCCNC2)c2cc(-c3cc(F)cc(F)c3)sc12 [Example 10, 2-(3,5-difluorophenyl)-4-[(3S)-piperidin-3-ylamino]thieno[3,2-c]pyridine-7-carboxamide] | 
2 | 100 | 600 | 160 |  | NC(=O)c1cnc(N[C@H]2CCCNC2)c2cc(-c3ccc(Cl)cc3)sc12 [Example 14, 2-(4-chlorophenyl)-4-[(3S)-piperidin-3-ylamino]thieno[3,2-c]pyridine-7-carboxamide] | 
3 |  |  |  | 550 | NCCNc1ncc(C(N)=O)c2sc(-c3ccccc3)cc12 [Example 16, 4-[(2-aminoethyl)amino]-2-phenylthieno[3,2-c]pyridine-7-carboxamide] | 
4 |  |  |  |  | Cc1cc2c(N[C@H]3CCCNC3)ncc(C(N)=O)c2s1 [Example 157, 2-methyl-4-[(3S)-piperidin-3-ylamino]thieno[3,2-c]pyridine-7-carboxamide] | 150

Source: patent US20090275570A1, “SUBSTITUTED HETEROCYCLES AND THEIR USE AS CHK1, PDK1 AND PAK INHIBITORS” (ASTRAZENECA AB, priority 2005, published 2009)
